These results are taken from US20100143452A1, “POLYPHENOL CONTAINING COMPOSITIONS” (Universiteit Utrecht Holding B.V., priority 2006, published 2010).

Data set [1] has as its system B16 murine melanoma and C26 murine colon carcinoma. As to the kind of experiment: tumor growth in B16 or C26-tumor bearing mice. Conditions: i.v. 20 mg/kg, between day 7 and day 14, after a second injection at day 7. In kind it is in vivo. The protocol: B16 murine melanoma and C26 murine colon carcinoma cells were cultured at 37° C. in a 5% CO2-containing humidified atmosphere in DMEM medium (Gibco, Breda, The Netherlands) containing 10% (v/v) fetal calf serum supplemented with 2 mM L-glutamine, 100 IU/ml penicillin, 100 microgram/ml streptomycin and 0.25 microgram/ml amphotericin B (Gibco). Male Balb/c and C57B1/6 mice (6-8 weeks of age) were obtained from Charles River, kept in standard housing with standard rodent chow and water available ad libitum, and a 12 h light/dark cycle. Experiments were performed according to national regulations and approved by the local animal experiments ethical committee. Mice received a single intravenous injection of an indicated dose of free caffeic acid or liposomal caffeic acid prepared in Example 1 at the time when the tumor became palpable. At 7 days after treatment, tumor size was measured and tumor volume calculated according to the equation V=0.52×a^2×b, wherein a is the smallest and b is the largest superficial diameter. […] Tumor size was measured regularly, and tumor volume was calculated as described above. For the statistical analysis, data were analysed by one-way ANOVA with Dunnett's post test using GraphPad InStat version 3.05 for Windows, GraphPad Software (San Diego, USA). […] Spearman rank correlation coefficient was calculated to identify dose-response. […]

For another data set, the system named is cells. Conditions: 80 micomoles of naringenin per liter, for 24 hours; cited from earlier work.
The conditions of data set [2]: oral ingestion, best case scenario; cited from earlier work.
The conditions of data set [3]: dietary (ingested) polyphenols; cited from earlier work.

As for `O=C(O)/C=C/c1ccc(O)c(O)c1` [free caffeic acid, caffeic acid], in data set [1], the “effect on tumor volume” value is listed as “did not reduce tumor volume”.

For `O=C1C[C@@H](c2ccc(O)cc2)Oc2cc(O)cc(O)c21` [naringenin], in the data set on cells, the “reduction of hydroxyl damage to the DNA” value was 24%. Also, the “ingested amount absorbed in the human gastrointestinal tract” value in data set [2] is reported as no more than 15%. As for `O=c1c(O)c(-c2ccc(O)c(O)c2)oc2cc(O)cc(O)c12` [quercetin], the bioavailability in data set [3] is on record as 1-5%.
